Measurements taken from article PMC4109680, “Identification and Preclinical Pharmacology of the γ-Secretase Modulator BMS-869780” (International Journal of Alzheimer's Disease, 2014).

System: rat brain APP-CTFβ and APP-CTFα
Assay: Immunoprecipitation and western blot of APP-CTFβ and APP-CTFα from rat brain
Format: in vivo
Details: oral doses 1.9-235 mg/kg, 24 hours
Experimental: Rats were given oral doses of BMS-869780, and levels of brain Aβ, βCTF, and αCTF were determined 24 hours later. For comparison, BMS-698861 was dosed in a separate experiment and samples were taken 5 hours later. (a) Brain levels of Aβ1-42 (red), Aβ1-40 (green), Aβ1-38 (blue), and Aβ1-37 (purple) are shown as bars stacked upon one another. The total height of each bar therefore represents the sum of the four peptides. (b) Aβ1-42 (red—left Y axis) and Aβ1-x (grey—right Y axis). The same results for Aβ1-42 are plotted in both (a) and (b). (c) Rat brain βCTF was detected by western blotting of immunoprecipitates from samples of the same rat brains used for Aβ determinations. V, vehicle groups; results from rats dosed with 1.9, 22, 100, and 235 mg/kg of BMS-869780 and 10 mg/kg BMS-698861 (GSI) are indicated. (d) Western blots of immunoprecipitated αCTF from the same rat brain samples. (e) and (f) quantification of western blots shown in (c) and (d), respectively, expressed relative to percent of average level of CTF in vehicle-treated rats. Actual doses of BMS-869780 were determined by analysis of concentrations in left-over dosing solutions. […]

How did the “rat brain APP-CTFβ and APP-CTFα levels” value turn out when `COc1cc(Nc2nc3n(n2)CCCC[C@H]3c2ccc(F)cc2)ccc1-n1cnc(Cl)c1` [BMS-869780] was run?
The value was “Neither APP-CTFβ nor APP-CTFα levels were affected”.
